Data on 25 compounds can be found in patent US20260250290A1 (BRISTOL-MYERS SQUIBB COMPANY, priority 2023, published 2026).

Structures can show the parent of a compound that is named as a salt.

For the experiment, the target named is T1, full length SGK1 (Homo sapiens, UniProt O00141).
T1 construct: 125 μM full length SGK1 (Life Technologies Part #PR7358A); purchased Life Technologies PR7358A
T1 sequence (O00141 1-431): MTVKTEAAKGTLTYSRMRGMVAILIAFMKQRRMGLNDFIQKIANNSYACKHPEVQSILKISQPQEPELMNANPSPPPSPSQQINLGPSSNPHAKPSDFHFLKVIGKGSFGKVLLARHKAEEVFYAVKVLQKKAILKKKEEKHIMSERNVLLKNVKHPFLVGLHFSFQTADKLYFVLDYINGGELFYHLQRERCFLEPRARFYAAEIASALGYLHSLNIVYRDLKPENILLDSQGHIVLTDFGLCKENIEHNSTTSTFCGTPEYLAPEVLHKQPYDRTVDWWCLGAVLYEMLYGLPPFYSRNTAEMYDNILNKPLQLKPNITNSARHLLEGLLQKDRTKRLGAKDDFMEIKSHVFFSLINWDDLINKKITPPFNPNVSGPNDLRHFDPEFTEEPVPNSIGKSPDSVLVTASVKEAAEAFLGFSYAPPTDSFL
Description: SGK1 inhibition Assay A (Caliper LabChip electrophoretic separation of fluorescent peptide substrate and phosphorylated product). Type of experiment: biochemical. As to conditions: Assay A; 20 μM ATP, 40 min incubation; read-out: SGK1 IC50.

On to `CN(C)CCOc1cc(Cl)sc1C(=O)N[C@@H]1CCCN(c2cc(-c3ccc4nnnn4c3)n3ncnc(N)c23)C1` [Example 192, (R)-N-(1-(4-amino-7-(tetrazolo[1,5-a]pyridin-6-yl)pyrrolo[2,1-f][1,2,4]triazin-5-yl)piperidin-3-yl)-5-chloro-3-(2-(dimethylamino)ethoxy) thiophene-2-carboxamide], for which the IC50 is 10 nM.

Turning to `CN(C)CCOc1cc(Cl)sc1C(=O)N[C@@H]1CCCN(c2cc(-c3ccc4ncnn4c3)n3ncnc(N)c23)C1` [Example 193, (R)-N-(1-(7-([1,2,4]triazolo{1,5-a]pyridin-6-yl)-4-aminopyrrolo[2,1-f][1,2,4]triazin-5-yl)piperidin-3-yl)-5-chloro-3-(2-(dimethylamino)ethoxy) thiophene-2-carboxamide], the IC50 was 25 nM.

Turning to `Cc1ccc(C(=O)N[C@@H]2CCCN(c3c(Br)c(-c4ccc(S(C)(=O)=O)cc4)n4ncnc(N)c34)C2)s1` [Example 194, N-[(3R)-1-[4-amino-6-bromo-7-(4-methanesulfonylphenyl)pyrrolo[2,1-f][1,2,4]triazin-5-yl]piperidin-3-yl]-5-methylthiophene-2-carboxamide], the IC50 was found to be 188 nM.

Turning to `Cc1ccc(C(=O)N[C@@H]2CCCN(c3c(Cl)c(-c4ccc(S(C)(=O)=O)cc4)n4ncnc(N)c34)C2)s1` [Example 195, N-[(3R)-1-[4-amino-6-chloro-7-(4-methanesulfonylphenyl)pyrrolo[2,1-f][1,2,4]triazin-5-yl]piperidin-3-yl]-5-methylthiophene-2-carboxamide], the IC50 was determined as 107 nM.

Consider `CS(=O)(=O)c1ccc(-c2c(Cl)c(N3CCC[C@@H](NC(=O)c4ccncc4)C3)c3c(N)ncnn23)cc1` [Example 196, N-[(3R)-1-[4-amino-6-chloro-7-(4-methanesulfonylphenyl)pyrrolo[2,1-f][1,2,4]triazin-5-yl]piperidin-3-yl]pyridine-4-carboxamide], for which the IC50 stood at 222 nM.

In the case of `Cc1ccc(C(=O)N[C@@H]2CCCN(c3c(C#N)c(-c4ccc(S(C)(=O)=O)cc4)n4ncnc(N)c34)C2)s1` [Example 197, N-[(3R)-1-[4-amino-6-cyano-7-(4-methanesulfonylphenyl)pyrrolo[2,1-f][1,2,4]triazin-5-yl]piperidin-3-yl]-5-methylthiophene-2-carboxamide], the IC50 is 30 nM.

As for `Cc1cc(N2CCOCC2)c(C(=O)N[C@@H]2CCCN(c3cc(-c4ccnc(F)c4)n4ncnc(N)c34)C2)s1` [Example 198, (R)—N-(1-(4-amino-7-(2-fluoropyridin-4-yl)pyrrolo[2,1-f][1,2,4]triazin-5-yl)piperidin-3-yl)-5-methyl-3-morpholinothiophene-2-carboxamide, 2 TFA], the half-inhibitory concentration (IC50) amounted to 2 nM.

In the case of `Cc1cc(N2CCN(C)CC2)c(C(=O)N[C@@H]2CCCN(c3cc(-c4ccnc(F)c4)n4ncnc(N)c34)C2)s1` [Example 199, (R)—N-(1-(4-amino-7-(2-fluoropyridin-4-yl)pyrrolo[2,1-f][1,2,4]triazin-5-yl)piperidin-3-yl)-5-methyl-3-(4-methylpiperazin-1-yl)thiophene-2-carboxamide, 3 TFA], the IC50 was 2 nM.

Take `Cc1cc(CN2CCN(C)CC2)c(C(=O)N[C@@H]2CCCN(c3cc(-c4ccnc(F)c4)n4ncnc(N)c34)C2)s1` [Example 200, (R)—N-(1-(4-amino-7-(2-fluoropyridin-4-yl)pyrrolo[2,1-f][1,2,4]triazin-5-yl)piperidin-3-yl)-5-methyl-3-((4-methylpiperazin-1-yl)methyl)thiophene-2-carboxamide]: the IC50 came out at 15 nM.

Take `Cc1cc(COCCN2CCOCC2)c(C(=O)N[C@@H]2CCCN(c3cc(-c4ccnc(F)c4)n4ncnc(N)c34)C2)s1` [Example 201, (R)—N-(1-(4-amino-7-(2-fluoropyridin-4-yl)pyrrolo[2,1-f][1,2,4]triazin-5-yl)piperidin-3-yl)-5-methyl-3-((2-morpholinoethoxy)methyl)thiophene-2-carboxamide, 2 TFA]: the IC50 was 3 nM.

Regarding `Cc1cc(CO)c(C(=O)N[C@@H]2CCCN(c3cc(-c4ccnc(F)c4)n4ncnc(N)c34)C2)s1` [Example 202, (R)—N-(1-(4-amino-7-(2-fluoropyridin-4-yl)pyrrolo[2,1-f][1,2,4]triazin-5-yl)piperidin-3-yl)-3-(hydroxymethyl)-5-methylthiophene-2-carboxamide], the IC50 is 12 nM.

For the compound `Cn1cc(-c2cc(N3CCC[C@@H](NC(=O)c4ccc(Cl)s4)C3)c3c(N)ncnn23)c(C2CC2)n1` [Example 203, (R)—N-(1-(4-amino-7-(3-cyclopropyl-1-methyl-1H-pyrazol-4-yl)pyrrolo[2,1-f][1,2,4]triazin-5-yl)piperidin-3-yl)-5-chlorothiophene-2-carboxamide, TFA], the IC50 turned out to be 19 nM.

Turning to `CC(=O)c1ccc(-c2cc(N3CCC[C@@H](NC(=O)c4ccc(Cl)s4)C3)c3c(N)ncnn23)cc1` [Example 204, (R)-N-(1-(7-(4-acetylphenyl)-4-aminopyrrolo[2,1-f][1,2,4]triazin-5-yl)piperidin-3-yl)-5-chlorothiophene-2-carboxamide, TFA], the IC50 was found to be 5 nM.

As to `Nc1ncnn2c(-c3ccnc4[nH]ccc34)cc(N3CCC[C@@H](NC(=O)c4ccc(Cl)s4)C3)c12` [Example 205, (R)-N-(1-(4-amino-7-(1H-pyrrolo[2,3-b]pyridin-4-yl)pyrrolo[2,1-f][1,2,4]triazin-5-yl)piperidin-3-yl)-5-chlorothiophene-2-carboxamide, TFA], the IC50 stood at 7 nM.

As to `Nc1ncnn2c(-c3cc(F)c(O)c(F)c3)cc(N3CCC[C@@H](NC(=O)c4ccc(Cl)s4)C3)c12` [Example 206, (R)-N-(1-(4-amino-7-(3,5-difluoro-4-hydroxyphenyl)pyrrolo [2,1-f][1,2,4]triazin-5-yl)piperidin-3-yl)-5-chlorothiophene-2-carboxamide], the IC50 was 12 nM.

For the compound `COc1cc(-c2cc(N3CCC[C@@H](NC(=O)c4ccc(Cl)s4)C3)c3c(N)ncnn23)ccc1C(N)=O` [Example 207, (R)-N-(1-(4-amino-7-(4-carbamoyl-3-methoxyphenyl)pyrrolo [2,1-f][1,2,4]triazin-5-yl)piperidin-3-yl)-5-chlorothiophene-2-carboxamide], the IC50 stood at 4 nM.

With `CC(=O)Nc1cccc(-c2cc(N3CCC[C@@H](NC(=O)c4ccc(Cl)s4)C3)c3c(N)ncnn23)c1` [Example 208, (R)-N-(1-(7-(3-acetamidophenyl)-4-aminopyrrolo[2,1-f][1,2,4]triazin-5-yl)piperidin-3-yl)-5-chlorothiophene-2-carboxamide], the IC50 amounted to 20 nM.

Consider `Cn1nccc1-c1cc(N2CCC[C@@H](NC(=O)c3ccc(Cl)s3)C2)c2c(N)ncnn12` [Example 210, (R)-N-(1-(4-amino-7-(1-methyl-1H-pyrazol-5-yl)pyrrolo[2,1-f][1,2,4]triazin-5-yl)piperidin-3-yl)-5-chlorothiophene-2-carboxamide, TFA], for which the IC50 is 9 nM.

With `Nc1ncnn2c(-c3ccn[nH]3)cc(N3CCC[C@@H](NC(=O)c4ccc(Cl)s4)C3)c12` [Example 211, (R)-N-(1-(4-amino-7-(1H-pyrazol-5-yl)pyrrolo[2,1-f][1,2,4]triazin-5-yl)piperidin-3-yl)-5-chlorothiophene-2-carboxamide], the IC50 is 3 nM.

With `N#Cc1ccc(-c2cc(N3CCC[C@@H](NC(=O)c4ccc(Cl)s4)C3)c3c(N)ncnn23)s1` [Example 212, (R)-N-(1-(4-amino-7-(5-cyanothiophen-2-yl)pyrrolo[2,1-f][1,2,4]triazin-5-yl)piperidin-3-yl)-5-chlorothiophene-2-carboxamide, TFA], the IC50 is 6 nM.

In the case of `COc1cnccc1-c1cc(N2CCC[C@@H](NC(=O)c3ccc(Cl)s3)C2)c2c(N)ncnn12` [Example 213, (R)-N-(1-(4-amino-7-(3-methoxypyridin-4-yl)pyrrolo[2,1-f][1,2,4]triazin-5-yl)piperidin-3-yl)-5-chlorothiophene-2-carboxamide, TFA], the IC50 amounted to 5 nM.

Consider `Nc1ncnn2c(-c3cccc(CO)c3)cc(N3CCC[C@@H](NC(=O)c4ccc(Cl)s4)C3)c12` [Example 214, (R)-N-(1-(4-amino-7-(3-(hydroxymethyl)phenyl)pyrrolo[2,1-f][1,2,4]triazin-5-yl)piperidin-3-yl)-5-chlorothiophene-2-carboxamide], for which the IC50 is 11 nM.

As to `COc1cc(-c2cc(N3CCC[C@@H](NC(=O)c4ccc(Cl)s4)C3)c3c(N)ncnn23)ccn1` [Example 215, (R)-N-(1-(4-amino-7-(2-methoxypyridin-4-yl)pyrrolo[2,1-f][1,2,4]triazin-5-yl)piperidin-3-yl)-5-chlorothiophene-2-carboxamide, TFA], the IC50 is 6 nM.

With `Cn1cc(-c2cc(N3CCC[C@@H](NC(=O)c4ccc(Cl)s4)C3)c3c(N)ncnn23)cn1` [Example 216, (R)-N-(1-(4-amino-7-(1-methyl-1H-pyrazol-4-yl)pyrrolo[2,1-f][1,2,4]triazin-5-yl)piperidin-3-yl)-5-chlorothiophene-2-carboxamide, TFA], the IC50 was found to be 26 nM.

As to `Cc1nn(C)cc1-c1cc(N2CCC[C@@H](NC(=O)c3ccc(Cl)s3)C2)c2c(N)ncnn12` [Example 217, (R)-N-(1-(4-amino-7-(1,3-dimethyl-1H-pyrazol-4-yl)pyrrolo[2,1-f][1,2,4]triazin-5-yl)piperidin-3-yl)-5-chlorothiophene-2-carboxamide], the IC50 stood at 62 nM.

What is called IC50 is the midpoint of a concentration-inhibition curve.
